{
  "source": "patent US8404665B2",
  "about": "“In vivo use of glutathione S-transferase activated nitric oxide donors” (University of Utah Research Foundation, priority 2002, dated 2013)",
  "key": {"[1]": {"tested_on": "U937 cells", "experiment": "U937 leukemia cell growth", "assay_type": "cell-based, human", "description": "Cell Lines and Culture Conditions. HL-60, DLD1, and U937 cells were obtained from ATCC (Rockville, Md.). Meth A cells were from Dr. Wolfram Samlowski (University of Utah, Salt Lake City, Utah). The PPC-1 cell line was provided by Dr. Graeme Bolger (University of Alabama, Birmingham, Ala.). For the cell growth and apoptosis experiments, cells were cultured at a density of 150,000 cells/ml in RPMI-1640 with 10% fetal bovine serum at 37° C. in a 5% CO2 humidified atmosphere. Agents were added at the indicated concentrations 24 h after culture initiation. […]\n(§1) Cell Growth, Differentiation and Apoptosis Assays. The number of viable cells was determined using the MTT assay according to the manufacturer's protocol (Promega, Madison, Wis.) or using a Coulter counter. […] The assay is useful in calorimetric quantitation of cell viability and proliferation. In contrast, cell differentiation was evaluated using Wright and Non-Specific Esterase (NSE) staining of cells collected on microscope slides by cytospin as previously described (Magrinat, G. et al. (1992) Blood 80: 1880-1884). […]\nThe antiproliferative effects in the human AML (Acute Myeloid Leukemia) cell lines, HL-60 (myeloid leukemia) and U937 (monoblastic leukemia) cells were treated with JS-K for a period of 3 days, upon which cell growth was evaluated using a Coulter counter (CITY, STATE). […]"}, "[2]": {"tested_on": "HL-60 cells", "experiment": "Subcutaneous HL-60 tumor implants in NOD/SCID mice", "assay_type": "in vivo", "description": "(§2) To study the in vivo antineoplastic potency of JS-K, NOD/SCID mice were injected in the flanks subcutaneously with HL-60 or PPC-1 cells (2.5×10^6 cells per flank). When subcutaneous tumors were palpable, treatment with JS-K or an equal volume of vehicle (20% dimethyl sulfoxide in PBS) was started using the indicated doses and route. Tumor size was measured daily or every other day using a Vernier caliper. Tumor volume was calculated using the formula: width×length×[(width+length)/2]×0.5236. Fifteen to 20 days after tumor cell implantation, animals were sacrificed by CO2 inhalation and tumors were collected for histochemical analysis.\n(§3) Histological Analysis of Tumors. After sacrifice, subcutaneous tumors were dissected out, fixed in 10% formaldehyde and imbedded in paraffin. Four-um sections were cut and stained with Hematoxylin and Eosin.\nTo determine the in vivo therapeutic efficacy of JS-K, NOD/SCID mice were injected subcutaneously with 5×10^6 HL-60 cells in the flanks. When tumors were measurable (4 to 5 days after leukemia cell inoculation), the mice were divided into 2 groups that received either vehicle or JS-K at a dose of 4 μmol/kg administered intravenously 3 times per week. After seventeen days from the leukemia cell inoculation there appeared to be a significant difference in tumor volume between vehicle and JS-K treated animals: tumor volume was 9.51±1.22 and 4.15±1.06 cm^3 in vehicle and JS-K treated animals, respectively."}, "[3]": {"tested_on": "DLD-1", "experiment": "DLD-1 solid tumor cell growth", "assay_type": "cell-based", "description": "(§4) Cell Lines and Culture Conditions. HL-60, DLD1, and U937 cells were obtained from ATCC (Rockville, Md.). Meth A cells were from Dr. Wolfram Samlowski (University of Utah, Salt Lake City, Utah). The PPC-1 cell line was provided by Dr. Graeme Bolger (University of Alabama, Birmingham, Ala.). For the cell growth and apoptosis experiments, cells were cultured at a density of 150,000 cells/ml in RPMI-1640 with 10% fetal bovine serum at 37° C. in a 5% CO2 humidified atmosphere. Agents were added at the indicated concentrations 24 h after culture initiation. At the indicated time intervals, cells were harvested and washed twice in phosphate buffered saline (PBS) prior to processing for analysis of growth, differentiation, and apoptosis.\nas §1"}, "[4]": {"tested_on": "PPC-1 cells", "experiment": "Subcutaneous PPC-1 tumor implants in NOD/SCID mice", "assay_type": "in vivo", "description": "as §2, §3\nTo determine if JS-K is cytotoxic to solid tumors, the effect of JS-K on the in vitro and in vivo growth of the prostate cancer cell line PPC-1 was studied. Similar to studies in HL-60 cells, indications are that JS-K appears to be a potent growth inhibitor for prostate cancer cells in vitro and in vivo. For the in vitro experiments, JS-K was added to PPC-1 cells at 1, 2, 3, 4, and 5 μM concentrations. […] For the in vivo experiments, NOD/SCID mice were inoculated subcutaneously with […] PPC-1 cells, as described above. When the subcutaneous tumors were measurable, JS-K was administered intravenously at a dose of 4 μmol/kg or an equal volume of vehicle 3 times per week.\nIn order to determine whether JS-K inhibits the in vivo growth of solid tumor cells, NOD/SCID mice were implanted with 2.5×10^6 PPC-1 (prostate carcinoma) cells and treated with 4 μmol/kg JS-K or an equal volume of vehicle intravenously 3 times a week. Similar to the observation with HL-60 cells, JS-K treatment appeared to inhibit the growth of PPC-1 cells in vivo. Nineteen days after start of therapy, subcutaneous tumor implant volumes were 0.368±0.082 and 0.107±0.053 cm^3 (P=0.0073) in vehicle and JS-K-treated animals, respectively. […]"}, "[5]": {"tested_on": "PPC-1 cells", "experiment": "PPC-1 prostate cancer cell growth in vitro", "assay_type": "cell-based", "description": "as §4, §1"}, "[6]": {"tested_on": "Meth A", "experiment": "Meth A solid tumor cell growth", "assay_type": "cell-based", "description": "as §4, §1"}, "[7]": {"conditions": "4 μmol/kg i.v. 3 times per week"}},
  "note": "Where two headings read alike, the source gives them in different places.",
  "data": [
    {"smiles": "CCOC(=O)N1CCN(/[N+]([O-])=N/Oc2ccc([N+](=O)[O-])cc2[N+](=O)[O-])CC1", "note": "[JS-K, O^2-(2,4-dinitrophenyl) 1-[(4-ethoxycarbonyl)piperazin-1-yl]diazen-1-ium-1,2-diolate]", "values": [
      {"measurement": "IC50", "setting": "[1]; U937 (monocytic leukemia) cells, read-out: IC50, growth", "value": 300, "unit": "nM"},
      {"measurement": "IC50", "setting": "[1]; U937, 3 days, Coulter counter, read-out: IC50, cell growth", "value": 330, "unit": "nM"},
      {"measurement": "leukemia implant growth in vivo", "setting": "[2]; [7]", "value": "significant delay in leukemia implant growth in vivo"},
      {"measurement": "tumor histology (necrosis) at experiment termination", "setting": "[2]; [7]", "value": "extensive necrosis"},
      {"measurement": "tumor volume", "setting": "[2]; 4 μmol/kg i.v. 3 times per week, seventeen days from inoculation, vehicle 9.51±1.22", "value": "4.15±1.06", "unit": "cm^3"},
      {"measurement": "cell necrosis in tumors (histologic analysis)", "setting": "[2]; controls ˜10%", "value": "more than 50%"},
      {"measurement": "reduction in tumor volume", "setting": "[2]; sixteen days after starting therapy, versus control", "value": "more than 50%"},
      {"measurement": "average tumor volume", "setting": "[2]; sixteen days after starting therapy, control 8.34±0.72, P=0.039", "value": "3.13±1.14", "unit": "cm^3"},
      {"measurement": "IC50 relative to leukemia lines", "setting": "[3]", "value": "an order of magnitude greater than those for the two leukemia lines"},
      {"measurement": "prostate cancer growth in vivo", "setting": "[4]; [7]", "value": "significant delay in prostate cancer growth in vivo"},
      {"measurement": "tumor histology (necrosis)", "setting": "[4]; [7]", "value": "high degree of extensive tumor necrosis"},
      {"measurement": "subcutaneous tumor implant volume", "setting": "[4]; nineteen days after start of therapy, vehicle 0.368±0.082, P=0.0073", "value": "0.107±0.053", "unit": "cm^3"},
      {"measurement": "cell growth inhibition", "setting": "[5]; 1, 2, 3, 4 and 5 μM, 3 days", "value": "potent inhibitor of prostate cancer growth"},
      {"measurement": "IC50 relative to leukemia lines", "setting": "[5]; PPC-1", "value": "an order of magnitude greater than those for the two leukemia lines"},
      {"measurement": "IC50 relative to leukemia lines", "setting": "[6]", "value": "an order of magnitude greater than those for the two leukemia lines"}
    ]}
  ]
}
